Reference: patent US9255106B2, “Substituted [1,2,4]triazolo[4,3-a]pyrazines as PARP-1 inhibitors” (SHANGHAI INSTITUTE OF MATERIA MEDICA, CHINESE ACADEMY OF …, priority 2012, dated 2016)
Marks after values point to notes of the source that are not given here.

Legend:
V8 cell = assay: PARP1 inhibitory activity at cellular level (proliferation inhibition model); conditions: read-out: PARP1 inhibitory activity at cellular level (%)
[1] = system: MDA-MB-436 human breast cancer; assay: Antitumor activity in vivo, subcutaneously transplanted tumor in MDA-MB-436 human breast cancer nude mice; conditions: for TV (mean ± SD) d0: d0 (at grouping); for RTV (mean ± SD) / T/C (%) / TV (mean ± SD) d21 / number of animals in which tumor regressed: d21; for number of animals in which tumor regressed: 6 animals
Protocol: A tumor tissue in vigorous growing period was cut into about 1.5 mm^3, and inoculated subcutaneously into right armpit of nude mice under a sterile condition. The diameter of subcutaneous transplant tumor in nude mice was measured by vernier caliper. When the tumor grew to 100-200 mm^3, the animals were randomly grouped. […] Solvent control group was administered saline in same volume. During the whole experiment, the tumor diameter was measured twice a week, while the body weight of mice was weighed simultaneously. The formula to calculate tumor volume (TV) was TV=½*a*b^2, wherein a and b respectively referred to length and width. Relative tumor volume (RTV) was calculated according to the measurements, and the formula is RTV=Vt/V0, wherein V0 is the tumor volume measured when the mice were grouped (i.e. d0), and Vt is the tumor volume measured each time.

PC-3 = assay: Inhibition of tumor cell proliferation, PC-3; conditions: Homo sapiens
U87-MG = assay: Inhibition of tumor cell proliferation, U87-MG; conditions: Homo sapiens, U-87 MG
Capan-1 = assay: Inhibition of tumor cell proliferation, Capan-1; conditions: Homo sapiens
OVCAR-8 = assay: Inhibition of tumor cell proliferation, OVCAR-8; conditions: Homo sapiens
[2] = in vivo; cited from earlier work
U251 = assay: Inhibition of tumor cell proliferation, U251; conditions: Homo sapiens, U-251

| Compound | inhibition at 0.0016 µM (V8 cell) [%] | inhibition at 0.008 µM (V8 cell) [%] | inhibition at 0.04 µM (V8 cell) [%] | inhibition at 0.2 µM (V8 cell) [%] | inhibition at 1 µM (V8 cell) [%] | also measured |
| --- | --- | --- | --- | --- | --- | --- |
| COC1CN(C(=O)c2cc(Cc3n[nH]c(=O)c4ccccc34)ccc2F)Cc2nnc(C(F)(F)F)n21 (centres unmarked) [Compound S10] | 11.6 | 10.5 | 31.8 | 67.5 | 78.6 | – |
| CC1CN(C(=O)c2cc(Cc3n[nH]c(=O)c4ccccc34)ccc2F)Cc2nnc(C(F)(F)F)n21 (racemic) [Compound S3] | -3.11 | 33.1 | 61.2 | 70.1 | 74.4 | TV (mean ± SD) d0 ([1]; 25 mg/kg, po, qd × 21): 127 ± 30 mm^3; RTV (mean ± SD) ([1]; 25 mg/kg, po, qd × 21): 1.40 ± 0.71**; T/C (%) ([1]; 25 mg/kg, po, qd × 21): 9.80%; TV (mean ± SD) d21 ([1]; 25 mg/kg, po, qd × 21): 165 ± 57 mm^3; number of animals in which tumor regressed ([1]; 25 mg/kg, po, qd × 21): 3; tumor outcome ([1]; 100 mg/kg): the tumor completely disappeared; side effects ([1]; 100 mg/kg and 25 mg/kg, po, qd × 21): no significant side effects; TV (mean ± SD) d0 ([1]; 100 mg/kg, po, qd × 21): 128 ± 36 mm^3; RTV (mean ± SD) ([1]; 100 mg/kg, po, qd × 21): 0.08 ± 0.04**; T/C (%) ([1]; 100 mg/kg, po, qd × 21): 0.59%; TV (mean ± SD) d21 ([1]; 100 mg/kg, po, qd × 21): 11 ± 7 mm^3; number of animals in which tumor regressed ([1]; 100 mg/kg, po, qd × 21): 1; IC50 (PC-3): 995 nM; IC50 (U87-MG): 228 nM; IC50 (Capan-1): 7.6 nM; IC50 (OVCAR-8): 10500 nM |
| O=C(c1cc(Cc2n[nH]c(=O)c3ccccc23)ccc1F)N1CCN(C(=O)C2CC2)CC1 [AZD2281, olaparib, reference compound] | – | – | – | – | – | TV (mean ± SD) d0 ([1]; 100 mg/kg, po, qd × 21): 127 ± 37 mm^3; RTV (mean ± SD) ([1]; 100 mg/kg, po, qd × 21): 0.95 ± 0.78**; T/C (%) ([1]; 100 mg/kg, po, qd × 21): 6.65%; TV (mean ± SD) d21 ([1]; 100 mg/kg, po, qd × 21): 120 ± 118 mm^3; bioavailability [2]: < 15%; half-life time [2]: < 1 h; IC50 (PC-3): 3920 nM; IC50 (U251): 1190 nM; IC50 (U87-MG): 2920 nM; IC50 (Capan-1): 729 nM; IC50 (OVCAR-8): 12400 nM |
| CC1c2nnc(C(F)(F)F)n2C(C)CN1C(=O)c1cc(Cc2n[nH]c(=O)c3ccccc23)ccc1F (centres unmarked) [Compound S5] | -5.06 | -3.01 | 23.5 | 63.8 | 73.5 | – |
| CC1CN(C(=O)c2cc(Cc3n[nH]c(=O)c4ccccc34)ccc2F)Cc2nnc(C(F)F)n21 (centres unmarked) [Compound S17] | 4.61 | 12.1 | 65.6 | 76.5 | 79.7 | – |
| CC1c2nnc(CF)n2C(C)CN1C(=O)c1cc(Cc2n[nH]c(=O)c3ccccc23)ccc1F (centres unmarked) [Compound S19] | 2.09 | -2.17 | 3.32 | 0.4 | 0.69 | – |
| CC1CN(C(=O)c2cc(Cc3n[nH]c(=O)c4ccccc34)ccc2F)Cc2nnc(CF)n21 (centres unmarked) [Compound S18] | 7.63 | 54.1 | 77 | 77 | 78.4 | – |
| CC1c2nnc(C(F)(F)F)n2CCN1C(=O)c1cc(Cc2n[nH]c(=O)c3ccccc23)ccc1F (centres unmarked) [Compound S4] | -1.36 | 8.66 | 53.1 | 75.5 | 75.7 | – |
